DBAASP
Values after ≈ are worked out from the molar mass of the structure shown.

How the values were obtained:
Assay in all cases: ≥ marks a high value that may be exact or a test limit, other limits are often not marked, values filed in µg/mL are converted to µM
[1] = tested on: Geobacillus stearothermophilus IFO12550
Bacillus cereus IFO 3514 = tested on: Bacillus cereus IFO 3514
[2] = tested on: Saccharomyces cerevisiae KK4
[3] = tested on: Bacillus subtilis IFO 3336
[4] = tested on: Escherichia coli IFO 3301
[5] = tested on: Agrobacterium tumefaciens LBA 4404
[6] = tested on: Staphylococcus aureus ATCC 33591
[7] = tested on: Kitasatospora kifunensis MN1
[8] = tested on: Staphylococcus aureus IFO 13276
[9] = tested on: Pseudomonas aeruginosa IFO 3445
[10] = tested on: Salmonella typhimurium IFO 12529
Candida boidinii MIP 104 = tested on: Candida boidinii MIP 104
[11] = tested on: Aspergillus niger IFO 4416
[12] = tested on: Candida albicans IFO 1385
[13] = tested on: Enterococcus faecalis JCM 8726
[14] = tested on: Levilactobacillus brevis IFO 3345
[15] = tested on: Staphylococcus aureus KCTC 1621
[16] = tested on: Pseudomonas aeruginosa CCARM 2109
[17] = tested on: Staphylococcus aureus CCARM 3543
[18] = tested on: Pseudomonas aeruginosa CCARM 2095
[19] = tested on: Pseudomonas aeruginosa KCTC 1637
[20] = tested on: Staphylococcus aureus CCARM 3001
[21] = tested on: Bacillus subtilis KCTC 3068
[22] = tested on: Escherichia coli KCTC 1682
[23] = tested on: Staphylococcus epidermidis KCTC 1917
[24] = tested on: Salmonella typhimurium KCTC 1926
[25] = tested on: Escherichia coli PCM 2057
[26] = tested on: Staphylococcus aureus PCM 1944
[27] = tested on: Prevotella melaninogenica
[28] = tested on: Staphylococcus aureus NCTC 8325
[29] = tested on: Clostridium perfringens ATCC 10543
Fusobacterium nucleatum = tested on: Fusobacterium nucleatum
[30] = tested on: Candida albicans ATCC 90028
[31] = tested on: Staphylococcus aureus T7/5
[32] = tested on: Peptoniphilus asaccharolyticus ATCC 29743
Bacteroides fragilis = tested on: Bacteroides fragilis
[33] = tested on: Staphylococcus aureus T7/20
Clostridium septicum = tested on: Clostridium septicum
[34] = tested on: Fusobacterium varium ATCC 27725
[35] = tested on: Escherichia coli ATCC 25922
[36] = tested on: Clostridium tertium ATCC 19465
[37] = tested on: Pseudomonas aeruginosa ATCC 27853
[38] = tested on: Salmonella enterica subsp. enterica serovar Typhimurium LT2
[39] = tested on: Bacteroides fragilis ATCC 25285
[40] = tested on: Cutibacterium acnes ATCC 11828
[41] = tested on: Staphylococcus aureus T27/9
[42] = tested on: Staphylococcus epidermidis RP62A
Cutibacterium acnes = tested on: Cutibacterium acnes
[43] = tested on: Enterobacter cloacae HNTCC 53001
[44] = tested on: Klebsiella pneumoniae KK3 9904
[45] = tested on: Peptostreptococcus anaerobius
[46] = tested on: Enterococcus faecalis ATCC 29212
[47] = tested on: Proteus mirabilis ATCC 25933
[48] = tested on: Bacillus subtilis ATCC 6633
[49] = tested on: Pseudomonas fluorescens ATCC 13525
[50] = tested on: Staphylococcus aureus ATCC 2592

For `NC(N)=NCCC[C@H](NC(=O)[C@H](Cc1cnc[nH]1)NC(=O)[C@H](CCCN=C(N)N)NC(=O)[C@H](Cc1cnc[nH]1)NC(=O)[C@H](CCCN=C(N)N)NC(=O)[C@H](Cc1cnc[nH]1)NC(=O)[C@H](CCCN=C(N)N)NC(=O)[C@H](Cc1cnc[nH]1)NC(=O)[C@@H](N)CCCN=C(N)N)C(=O)N[C@@H](Cc1cnc[nH]1)C(=O)O` [RHRHRHRHRH], the MIC [1] was 6.74 µM (≈ 10 µg/mL), the MIC (Bacillus cereus IFO 3514) was ≥ 269 µM and the MIC [2] was ≥ 67.4 µM. The MIC [3] was 6.74 µM (≈ 10 µg/mL), the MIC [4] was 6.74 µM (≈ 10 µg/mL) and the MIC [5] was 6.74 µM (≈ 10 µg/mL). For the same compound, the MIC [6] was ≥ 33.7 µM, the MIC [7] was ≥ 269 µM and the MIC [8] was ≥ 33.7 µM. For the same compound, the MIC [9] was 6.74 µM (≈ 10 µg/mL), the MIC [10] was ≥ 101 µM and the MIC (Candida boidinii MIP 104) was 6.74 µM (≈ 10 µg/mL). The MIC [11] was ≥ 33.7 µM, the MIC [12] was ≥ 67.4 µM and the MIC [13] was 6.74 µM (≈ 10 µg/mL). The MIC [14] was 6.74 µM (≈ 10 µg/mL).

With `CC(C)C[C@H](NC(=O)[C@H](Cc1c[nH]c2ccccc12)NC(=O)[C@H](CCCCN)NC(=O)[C@H](CC(C)C)NC(=O)[C@H](Cc1c[nH]c2ccccc12)NC(=O)[C@H](CC(C)C)NC(=O)[C@H](CCCCN)NC(=O)[C@H](Cc1c[nH]c2ccccc12)NC(=O)[C@H](CC(C)C)NC(=O)[C@@H](N)CCCCN)C(=O)N[C@@H](CCCCN)C(N)=O` [KLWKLWLKWLK] the MIC [15] was 2 µM (≈ 3.08 µg/mL), the MIC [16] was 16 µM (≈ 24.7 µg/mL) and the MIC [17] was 4 µM (≈ 6.16 µg/mL). The MIC [18] was 16 µM (≈ 24.7 µg/mL), the MIC [19] was 4 µM (≈ 6.16 µg/mL) and the MIC [20] was 8 µM (≈ 12.3 µg/mL). The MIC [21] was 4 µM (≈ 6.16 µg/mL), the MIC [22] was 4 µM (≈ 6.16 µg/mL) and the MIC [23] was 4 µM (≈ 6.16 µg/mL). For the same compound, the MIC [24] was 2 µM (≈ 3.08 µg/mL).

With `CC[C@H](C)[C@@H]1NC(=O)[C@H](CO)NC(=O)[C@H](CCCCN)NC(=O)[C@@H](N)CSSC[C@@H](C(=O)O)NC(=O)[C@H](Cc2ccccc2)NC1=O` [CKSIFC] the MIC [25] was ≥ 1430 µM and the MIC [26] was ≥ 1430 µM.

`CC[C@H](C)[C@H](NC(=O)[C@H](CO)NC(=O)[C@H](CO)NC(=O)[C@H](CC(C)C)NC(=O)[C@@H](N)Cc1ccccc1)C(=O)NCC(=O)N[C@@H](CCCCN)C(=O)N[C@H](C(=O)N[C@@H](CC(C)C)C(=O)NCC(=O)N[C@@H](CC(N)=O)C(=O)N[C@@H](CC(C)C)C(=O)N[C@@H](CC(C)C)C(N)=O)[C@@H](C)CC` [FLSSIGKILGNLL] was tested, and the MIC [27] was 25 µM (≈ 34.3 µg/mL), the MIC [28] was 10 µM (≈ 13.7 µg/mL) and the MIC [29] was 25 µM (≈ 34.3 µg/mL). For the same compound, the MIC (Fusobacterium nucleatum) was ≥ 50 µM, the MIC [30] was ≥ 160 µM and the MIC [31] was 20 µM (≈ 27.5 µg/mL). The MIC [32] was ≥ 50 µM, the MIC (Bacteroides fragilis) was ≥ 50 µM and the MIC [33] was 20 µM (≈ 27.5 µg/mL). For the same compound, the MIC (Clostridium septicum) was ≥ 50 µM, the MIC [34] was ≥ 50 µM and the MIC [35] was 40 µM (≈ 54.9 µg/mL). The MIC [36] was 12.5 µM (≈ 17.2 µg/mL), the MIC [37] was 160 µM (≈ 220 µg/mL) and the MIC [38] was ≥ 50 µM. The MIC [39] was ≥ 50 µM, the MIC [40] was 6 µM (≈ 8.24 µg/mL) and the MIC [41] was ≥ 40 µM. The MIC [42] was 20 µM (≈ 27.5 µg/mL), the MIC (Cutibacterium acnes) was 12.5 µM (≈ 17.2 µg/mL) and the MIC [43] was ≥ 40 µM. For the same compound, the MIC [44] was ≥ 80 µM, the MIC [45] was 25 µM (≈ 34.3 µg/mL) and the MIC [46] was 40 µM (≈ 54.9 µg/mL). For the same compound, the MIC [47] was ≥ 100 µM.

With `CC[C@H](C)[C@H](NC(=O)[C@H](CCCCN)NC(=O)[C@H](CC(C)C)NC(=O)[C@H](Cc1ccccc1)NC(=O)[C@H](CO)NC(=O)[C@H](CC(C)C)NC(=O)[C@H](Cc1ccccc1)NC(=O)[C@H](CCCN=C(N)N)NC(=O)[C@H](CO)NC(=O)[C@H](CC(C)C)NC(=O)[C@@H](N)CO)C(=O)N[C@H](C(=O)N[C@@H](Cc1ccc(O)cc1)C(=O)N1CCC[C@H]1C(=O)N1CCC[C@H]1C(=O)N[C@@H](C)C(=O)N[C@@H](Cc1ccccc1)C(N)=O)C(C)C` [SLSRFLSFLKIVYPPAF] the MIC [48] was 25.2 µM (≈ 50 µg/mL), the MIC [49] was ≥ 50.4 µM and the MIC [50] was 25.2 µM (≈ 50 µg/mL).
